According to paper PMC7582602, “Beyond the Canonical Endocannabinoid System. A Screening of PPAR Ligands as FAAH Inhibitors” (International Journal of Molecular Sciences, 2020):
Where two headings read alike, the source gives them in different places.

What was measured:
FAAH Human recombinant = target: T1, FAAH Human recombinant (Homo sapiens, UniProt O00519); assay: FAAH inhibition assay (fluorometric, AMC-AA substrate); assay type: biochemical; conditions: for IC50: human recombinant FAAH, mean ± SEM, i: inactive; for inhibition at 100 µM: read-out: FAAH % inhibition @ 100 μM
T1 construct: purchased Cayman Chemical
T1 sequence (O00519 1-579): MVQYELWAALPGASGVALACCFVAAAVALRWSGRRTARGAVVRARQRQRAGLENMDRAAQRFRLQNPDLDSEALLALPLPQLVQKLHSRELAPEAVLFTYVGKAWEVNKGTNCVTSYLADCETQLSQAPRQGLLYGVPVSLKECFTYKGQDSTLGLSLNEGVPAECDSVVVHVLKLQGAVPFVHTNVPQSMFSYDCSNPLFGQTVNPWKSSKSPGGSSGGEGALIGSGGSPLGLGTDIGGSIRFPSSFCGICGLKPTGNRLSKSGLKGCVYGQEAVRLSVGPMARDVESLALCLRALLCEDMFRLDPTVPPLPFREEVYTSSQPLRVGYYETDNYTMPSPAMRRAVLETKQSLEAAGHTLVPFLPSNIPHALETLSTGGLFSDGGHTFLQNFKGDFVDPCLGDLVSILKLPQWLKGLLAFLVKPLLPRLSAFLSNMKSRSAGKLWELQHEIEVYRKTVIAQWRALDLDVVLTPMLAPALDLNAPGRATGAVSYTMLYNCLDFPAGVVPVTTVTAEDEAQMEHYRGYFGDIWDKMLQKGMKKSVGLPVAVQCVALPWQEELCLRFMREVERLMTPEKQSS
Procedure: Briefly, 96-well black flat-bottom microtiter NBS plates (COSTAR flat black) were utilized to perform the assays (in triplicate).
Control wells lacking the inhibitor and blank wells lacking both inhibitor and enzyme were used to calculate percent inhibition for each tested compound. IC50 values were calculated via GraphPad Prism 5.0 (GraphPad Software, La Jolla, CA, USA) and are reported as mean ± SEM of at least two independent measurements performed in triplicate.

human PPARγ [1] = target: T2, human PPARγ (Homo sapiens, UniProt P37231); conditions: previously reported compound; cited from earlier work
T2 sequence (P37231 238-503 limits assumed): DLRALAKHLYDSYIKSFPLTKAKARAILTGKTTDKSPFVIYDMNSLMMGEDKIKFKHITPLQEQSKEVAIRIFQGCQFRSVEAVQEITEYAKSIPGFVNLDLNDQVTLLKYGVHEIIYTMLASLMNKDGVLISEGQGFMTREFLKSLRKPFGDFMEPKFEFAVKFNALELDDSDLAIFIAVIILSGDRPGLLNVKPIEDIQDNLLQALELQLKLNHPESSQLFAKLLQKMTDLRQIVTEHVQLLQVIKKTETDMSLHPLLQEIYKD

LogD = assay type: physicochemical; conditions: called measured LogD values
human PPARα [2] = target: T3, human PPARα (Homo sapiens, UniProt Q07869); conditions: previously reported compound; cited from earlier work
T3 sequence (Q07869 239-466 limits assumed): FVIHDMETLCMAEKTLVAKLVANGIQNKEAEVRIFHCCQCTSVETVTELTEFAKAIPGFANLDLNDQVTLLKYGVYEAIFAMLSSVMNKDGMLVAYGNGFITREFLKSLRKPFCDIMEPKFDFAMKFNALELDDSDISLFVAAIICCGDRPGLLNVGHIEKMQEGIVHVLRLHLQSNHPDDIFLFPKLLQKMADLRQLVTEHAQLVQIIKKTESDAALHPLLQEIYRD

human PPARα [3] = target: T3, human PPARα; assay: GAL4-PPARα-LBD transactivation (luciferase) assay in HepG2 cells; conditions: for Emax: HepG2, read-out: PPARα Emax
human PPARγ [4] = target: T2, human PPARγ; assay: GAL4-PPARγ-LBD transactivation (luciferase) assay in HepG2 cells; conditions: for Emax: HepG2, read-out: PPARγ Emax
FAAH = system: FAAH; set-up: method as in PMID 23240907; conditions: literature value for carprofen; cited from earlier work

IC50 (FAAH Human recombinant) [µM]	inhibition at 100 µM (FAAH Human recombinant) [%]	SMILES	PPARγ Emax (human PPARγ [1])	PPARα Emax (human PPARα [2])	further results
> 100	–	O=C(O)C(Cc1ccccc1)Oc1ccc(Cc2ccccc2)cc1 (centres unmarked) [Compound 14]	42 ± 1%	115 ± 27%	logD (LogD): 2.62; activity on FAAH (in words) (FAAH Human recombinant): completely inactive
> 100	32.2	CC(Oc1ccc(CCc2ccccc2)cc1)C(=O)O (racemic) [Compound 16]	–	–	EC50 (human PPARα [3]): 17.6 ± 3 µM; Emax (human PPARα [3]): 116 ± 1%; melting point: 106 to 107 °C; EC50 (human PPARγ [4]): 24 ± 6 µM; Emax (human PPARγ [4]): 18 ± 7%
> 100	34	O=C(Cc1ccccc1)c1ccc(O[C@@H](Cc2ccccc2)C(=O)O)cc1 [Compound 21]	40 ± 2%	106 ± 1%	EC50 (human PPARγ [1]): 9.1 ± 0.9 µM; EC50 (human PPARα [2]): 1.8 ± 1 µM
> 100	30	CC(Oc1ccc(Cc2ccccc2)cc1)C(=O)O (racemic) [Compound 13, (R,S)-2-(4-benzyl)-phenoxypropanoic acid]	–	–	EC50 (human PPARα [3]): 4.6 ± 1.8 µM; Emax (human PPARα [3]): 116 ± 1%; melting point: 102 to 104 °C
> 100	–	O=C(/C=C/c1ccccc1)O[C@@H](Cc1ccccc1)C(=O)O [(S)-28]	–	–	Emax (human PPARα [3]): 34 ± 8%; Emax (human PPARγ [4]): 9 ± 6%
12.6 ± 3.1	–	O=C(C=Cc1ccc(O)c(O)c1)N[C@@H](Cc1ccccc1)C(=O)O [Compound 33]	–	–	melting point: 198 to 199 °C
> 100	39.2	O=C(O)C(Cc1ccccc1)Oc1ccc(NCc2ccccc2)cc1 (centres unmarked) [Compound 20]	27 ± 6%	78 ± 4%	–
40.2 ± 17.7	–	O=C(O)COc1ccc(Cc2ccccc2)cc1 [Compound 5, 4-benzyl-phenoxyacetic acid]	–	–	EC50 (human PPARα [3]): 24 ± 5 µM; Emax (human PPARα [3]): 34 ± 8%; melting point: 117 to 118 °C; EC50 (human PPARγ [4]): 33 ± 23 µM; Emax (human PPARγ [4]): 9 ± 6%; logD (LogD): 0.27

The remaining lines, values behind:

SMILES	IC50 (FAAH Human recombinant) [µM]	inhibition at 100 µM (FAAH Human recombinant) [%]	PPARγ Emax (human PPARγ [1])	PPARα Emax (human PPARα [2])	further results
O=C(O)COc1ccc(CCc2ccccc2)cc1 [Compound 15, 4-phenethyl-phenoxyacetic acid]	~100	63	–	–	melting point: 130 to 131 °C
Oc1ccc(/C=C/c2cc(O)cc(O)c2)cc1 [Compound 12, resveratrol]	26.1 ± 11.4	–	–	–	–
CC(Oc1ccc(Cc2ccc(OCc3coc(-c4ccccc4)n3)cc2)cc1)C(=O)O (centres unmarked) [Compound 17]	> 100	–	26 ± 3	47 ± 13	–
O=C(O)C(Cc1ccccc1)Oc1ccc(/C=C/c2ccccc2)cc1 (centres unmarked) [Compound 18]	24 ± 2.5	–	–	–	–
CC(C(=O)O)c1ccc2c(c1)[nH]c1ccc(Cl)cc12 (centres unmarked) [carprofen]	–	–	–	–	IC50 (FAAH): 79 ± 20 µM
CCCCCCCN(CCc1ccc(OCC(=O)O)cc1)c1nc2ccccc2o1 [Compound 8]	30.5 ± 12.6	–	37 ± 11%	87 ± 7%	EC50 (human PPARγ [1]): 0.83 ± 0.75 µM; EC50 (human PPARα [2]): 0.12 ± 0.16 µM
CCCCCCCN(CCc1ccc(O[C@H](C)C(=O)O)cc1)c1nc2ccccc2o1 [Compound 26]	> 100	35	59 ± 2%	93 ± 6%	–
O=C(O)C(Cc1ccccc1)Oc1ccc(/C=C\c2ccccc2)cc1 (centres unmarked) [Compound 19]	> 100	30.5	–	–	–
CCCCCCCN(CCc1ccc(O[C@@H](C)C(=O)O)cc1)c1nc2ccccc2o1 [Compound 25]	~100	45.1	32 ± 5%	78 ± 4%	–
O=C(/C=C/c1ccc(O)c(O)c1)O[C@H](Cc1ccc(O)c(O)c1)C(=O)O [Compound 4, Rosmarinic acid]	~100	62	–	–	activity on PPARα (in words) (human PPARα [3]): did not find any activity; activity on PPARγ (in words) (human PPARγ [4]): did not find any activity
Cc1cccc(Nc2cc(Cl)nc(SCC(=O)O)n2)c1C [Compound 2, Wy 14,643, reference compound]	> 100	–	–	–	activity on FAAH (in words) (FAAH Human recombinant): little to no activity
O=C(Oc1ccc([N+](=O)[O-])cc1)N1CCN(Cc2cccc(Oc3ccccc3)c2)CC1 [JZL195, reference compound]	0.019 ± 0.003	–	–	–	–
CCCc1c(OCCCOc2ccc(OCC(=O)O)cc2)ccc(C(C)=O)c1O [Compound 3, L165,041, reference compound]	> 100	40	–	–	activity on FAAH (in words) (FAAH Human recombinant): little to no activity
COc1ccc(C=CC(=O)N[C@@H](Cc2ccc(O)cc2)C(=O)O)cc1OC [Compound 35, (S)-2-(3-(3,4-dimethoxyphenyl)acrylamido)-3-(4-hydroxyphenyl)propanoic acid]	–	–	–	–	melting point: 105 to 108.5 °C
